From patent publication US8992891B2, “Therapeutic approaches for treating CMT and related disorders” (Pharnext, priority 2007, dated 2015)

Tests used:
PMP22 mRNA = PMP22 mRNA level by quantitative RT-PCR after drug stimulation of rat Schwann cell primary culture; type: cell-based; parameters: key: +: significantly decreases PMP22 levels compared to control; settings: rat primary Schwann cells, drug incubation 24 hrs
Method: After cells being platted in 12 well-dishes, the medium is replaced by a defined medium consisting in a mix of DMEM-F12 (Invitrogen #21331020) complemented by 1% of N2 supplement (Invitrogen #17502), 1% L-Glutamine (Invitrogen #25030024) 2.5% FBS (Sciencell #0025), 0.02 μg/ml of corticosterone (Sigma #C2505), 4 μM Forskolin and 50 μg/ml of gentamycin. Growth factors are not added to this medium, to promote SC differentiation
24 hours later, the medium is replaced by a defined medium (DMEM-F12) complemented with 1% Insulin-Transferrin-Selenium-X (ITS, Invitrogen #51300), 16 μg/ml of Putrescine (Sigma #P5780), 0.02 μg/ml of corticosterone and 50 μg/ml of gentamicin. At this step, neither progesterone nor forskolin are present in the medium.
One day later, Schwann cells are stimulated by combinations of drugs or drugs alone during 24 hrs (3 wells/condition). The preparation of each compound is performed just prior to its addition to the cell culture medium.
Drugs are added to a defined medium composed of DMEM-F12, with 1% Insulin-Transferrin-Selenium-X (ITS, Invitrogen #51300), 16 μg/ml of Putrescine, 0.02 μg/ml of corticosterone, 10 nM Progesterone and 50 μg/ml of gentamicin. The absence of Forskolin during drug stimulation avoids adenylate cyclase saturation.
Quantitative RT-PCR is used to compare the levels of PMP22 mRNA after drug stimulation, relative with housekeeping Ribosomal L13A mRNA in rat Schwann cell primary culture.
After rinsing with cold sterilized PBS, total RNAs from each cell sample are extracted and purified from SC using the Qiagen RNeasy micro kit (Qiagen #74004). Nucleic acids are quantified by Nanodrop spectrophotometer using 1 μl of RNA sample. The RNA integrity is determined through a BioAnalyzer (Agilent) apparatus.
RNAs are reverse-transcribed into cDNA according to standard protocol. cDNA templates for PCR amplification are synthesized from 200 ng of total RNA using SuperScript II reverse-transcriptase (Invitrogen #18064-014) for 60 min at 42° C. in the presence of oligo(dT), in a final volume of 20 μl.
cDNAs are subjected to PCR amplification using the ? LightCycler® 480 ? system (Roche Molecular Systems Inc.) Each cDNA are diluted five times before being used for PCR amplification. 2.5 μl of this cDNAs enters the PCR reaction solution (final volume of 10 μl). Preliminary experiments ensured that quantitation was done in the exponential phase of the amplification process for both sequences and that expression of the reference gene was uniform in the different culture conditions.
PCR reaction is performed by amplification of 500 nM of forward primer of rat PMP22 (NM_017037), 5-GGAAACGCGAATGAGGC-3 (SEQ ID NO: 1), and 500 nM of reverse primer 5-GTTCTGTTTGGTTTGGCTT-3 (SEQ ID NO: 2) (amplification of 148-bp). A 152-bp fragment of the RPL13A ribosomal (NM_173340) RNA is amplified in parallel in separate reactions for normalization of the results by using 500 nM of forward primer 5-CTGCCCTCAAGGTTGTG-3 (SEQ ID NO: 3), and 500 nM of reverse primer 5-[…]-3 (SEQ ID NO: 4).
We used FRET chemistry to perform RT-Q-PCR analysis. FRET probes are composed of 0.3 μM of Pmp22-FL-5-[…] (SEQ ID NO: 5) or Rpl13A-FL-5-TCGGGTGGAAGTACCAGCC (SEQ ID NO: 6), labelled at their 3′ end with a donor fluorophore dye (Fluorescein). 0.15 μM Red640 probes are defined as follows: Pmp22-red-5′-[…]- (SEQ ID NO: 7) or Rpl13A-red-5′-[…] (SEQ ID NO: 8), labelled at their 5′ end with an acceptor fluorophore dye (Rhodamine Red 640).
Each PCR reaction contained 2.5 μl cDNA template in a final volume of 10 μl of master mix kit (Roche #04-887301001).
The following PCR conditions are used: 10 sec at 95° C., 10 sec at 63° C. and 12 sec at 72° C. and 30 sec at 40° C. (Forty amplification cycles). The relative levels of PMP22 gene expression is measured by determining the ratio between the products generated from the target gene PMP22 and the endogenous internal standard RPL13A. […]

[1] = tested on: hemizygous PMP22 transgenic rat (CMT rat); experiment: Bar test in CMT transgenic rat model; type: in vivo; settings: CMT rats; for bar test performance compared with the placebo group: 16 weeks of treatment; for improvement of bar test motor performances versus placebo: after 8 weeks of the force-feeding; for bar test performances throughout the treatment procedure: chronic treatment
Text: Four weeks-old rats transgenic PMP22 rats have been used throughout of the study. Aspects of the study design (randomization, statistics for multiple comparisons, sample size etc.) have been checked to be in line with the recommendations provided in 4th issue of 43rd volume of ILAR Journal (2002), that provides reviews in the field of experimental design and statistics in biomedical research.
The experimental groups are formed with young rats of both genders separately. The rats are assigned to the groups following randomization schedule based on the body weight. In some experiments the randomization is based on the performances of the rats in the bar test.
Both genders are represented by separate control groups that are numerically equal or bigger than the treatment groups.
The animals are weighted twice a week in order to adjust the doses to growing body weight. If the osmotic pump is chosen for the treatment administration, the doses of the drug are calculated on the basis of the estimated mean body weight of the animals expected for their age over the period of the pump duration (6 weeks). The pumps are re-implanted if necessary, with the appropriated aesthesia protocol.
Each three or four weeks the animals are subjected to a behavioural test. Each test is conducted be the same investigator in the same room and at the same time of the day; this homogeneity is maintained throughout entire experiment. All treatments are blinded for the investigator. “Bar test” and “Grip strength” has been mainly used to access the performance throughout study. The schedule of the bar test may change as the animal growth (in order to avoid the bias due to the learning, for example).
The Bar Test evaluates rats' ability to hold on a fix rod. […] The rat is placed on its four paws on the middle of the rod (diameter: 2.5 cm; length: 50 cm; 30 cm above the table). Trials are performed consecutively; the number and the duration of trials in our experiments have been depending on batches of the animals. This variability in the testing have been introduced in order to determine the schedule appropriated to the best detection of the motor deficiency in the CMT rats in the course of the experiments.
Performance indices are recorded on each session: • The number of trials needed to hold for 60 sec (or 30 sec for batch 1, session 1 and 2) on the rod. • The time spent on the bar (i.e. the fall latency) in each trial and the average on the session. In the experimental procedures where the session ends after the rat has stayed for a cut-off time, i.e. 30 or 60 s, on the bar, a performance of the cut-off time (30 s or 60 s) is assigned to trials not completed (eg: for batch 8, for an animal which stays on the bar less than 10 sec on trials 1, 2 and 3, then for 60 sec on trials 4 and 5, 60 s is assigned to trials 6 to 10). • The number of falls.

Cn1cc[nH]c1=S [Methimazole]
mRNA (PMP22 expression decrease) (PMP22 mRNA): + | first dose shown to be active, as fraction of the dose equivalent to dosage used in human for the canonical indications [1]: one fourth | bar test performance compared with the placebo group [1]: significantly more performing | improvement of bar test motor performances versus placebo [1]: statistically significant | bar test performances throughout the treatment procedure [1]: improved bar test performances

CC[C@@H]1C(=O)OC[C@@H]1Cc1cncn1C [Pilocarpine]
mRNA (PMP22 expression decrease) (PMP22 mRNA): + | first dose shown to be active, as fraction of the dose equivalent to dosage used in human for the canonical indications [1]: one half | bar test performance compared with the placebo group [1]: significantly more performing | improvement of bar test motor performances versus placebo [1]: statistically significant | bar test performances throughout the treatment procedure [1]: improved bar test performances
